Test results reported in patent publication US9717792B2, “Combination therapy for cancer using HSP27 inhibitor and EGFR tyrosine kinase inhibitors or anti-folates” (The University Of British Columbia, priority 2012, dated 2017).

Key:
[1] = test system: A549 lung cancer cells; assay: Western blot of protein levels in A549 cells; assay type: cell-based, human
Procedure: Western blots: To perform Westerns, cell lysates were prepared under non-denaturing conditions. Briefly, the cell lysates were to immunoprecipition, and subsequently immunoblotted using antibody and visualized via electrophoresis and autoradiogram.
48 and 72 hours of exposure.
Protein expression was analyzed by western blotting. […] Flow cytometry was used to quantify the percentage of cells in each cell cycle phase.
(§1) Cleaved PARP, p-EGFR(Tyr1068), EGFR, p-Hsp27(Ser82), Hsp27, and Beta-actin were assayed.
Western gels were run on cell protein prepared under standard non-denaturing conditions, and relative levels of p-Hsp27(Ser82), Hsp27, cleaved PARP, and beta-actin were detected using commercial antibodies from Cell Signalling (Danvers, USA). Protein levels from zero to 48 hours for a 1 microMolar pemetrexed exposure were measured.
72 h later, cell viability was determined by crystal violet assay. […] Protein levels were also determined in these cells by immunoblotting.

[2] = test system: Hsp27 OE A549 cells; assay: Hsp27-overexpressing A549 cells: western blotting and flow cytometry after Erlotinib; assay type: cell-based, human
Procedure: The cell viability was determined by crystal violet assay.
The cells undergoing apoptosis (subG0/G1 fraction) were quantified using flow cytometry. FIGS. 4B and C.
as §1

[3] = test system: HCC827 cells; assay: Western blot of protein levels in HCC827 parental cells; assay type: cell-based, human; conditions: erlotinib 2.5 nanomolar; vs non-treated cells
Excerpt: Levels of p-EGFR(Tyr1068), EGFR, Hsp27, Cleaved PARP, Cleaved and whole Caspase-3, and beta-actin (cell protein control) were detected.

[4] = test system: Hsp27 mRNA; assay: Hsp27 mRNA expression by quantitative RT-PCR in A549 cells; conditions: 5 or 10 μM Erlotinib for 24 or 48 hours; normalized to GAPDH mRNA
Procedure: Hsp27 mRNA expression was analyzed by quantitative RT-PCR. Hsp27 mRNA levels were normalized to levels of GAPDH mRNA. Bars, SD. ** and *, differ from control (P<0.01 and P<0.05, respectively).

[5] = biological target: PKC-dependent phosphorylation of Hsp27 (Homo sapiens, UniProt P04792); conditions: cited from earlier work
PKC-dependent phosphorylation of Hsp27, sequence (P04792 whole entry): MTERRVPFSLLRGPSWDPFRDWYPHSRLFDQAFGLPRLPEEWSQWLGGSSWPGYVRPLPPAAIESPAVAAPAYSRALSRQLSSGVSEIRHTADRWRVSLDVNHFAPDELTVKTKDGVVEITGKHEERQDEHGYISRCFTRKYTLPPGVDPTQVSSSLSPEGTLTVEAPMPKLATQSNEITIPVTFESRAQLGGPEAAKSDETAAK

[6] = A549, erlotinib 0 to 20 micromolar, 72 hours
[7] = A549 OE, erlotinib 0 to 20 micromolar, 72 hours

C#Cc1cccc(Nc2ncnc3cc(OCCOC)c(OCCOC)cc23)c1 [Erlotinib, erlotinib]
amounts of EGFR, Hsp27 and p-Hsp27 (Western Blot) ([1]; 10 μM Erlotinib, 1, 6, 24, 48 and 72 hours): Increasing amounts | cleaved PARP (Western Blot) ([1]; 10 μM Erlotinib, 1 to 72 hours): observed at all times following 24 hours of treatment | p-EGFR (Tyr 1068) (Western Blot) ([1]; 10 μM Erlotinib, 1 to 72 hours): not observed following treatment | p-Hsp27, Hsp27, p-EGFR, EGFR, cleaved PARP (Western Blot), repeat ([1]; 48 hours, erlotinib 2.5, 5 and 10 μM): Qualitatively similar results | Cleaved PARP (Western) [1, 6]: increased | p-EGFR(Tyr1068) (Western) [1, 6]: decrease | Cleaved PARP (Western) [2, 7]: increased | p-EGFR(Tyr1068) (Western) [2, 7]: decrease | p-Hsp27(Ser82) (Western) [2, 7]: dose-dependent increase | apoptotic rate in cells with Hsp27 overexpression ([2]; Hsp27 OE A549 vs Empty A549, varying levels of erlotinib): decreased apoptotic rate | p-EGFR (Tyr068) (Western) [3]: decrease | protein levels of P-Hsp27(ser82), Hsp27 (Western) [3]: increased | Hsp27 mRNA expression [4]: increased Hsp27 expression

CCc1cc(-c2oncc2-c2ccc(OC)cc2)c(O)cc1OC [KRIBB3, 5-(5-Ethyl-2-hydroxy-4-methoxyphenyl)-4-(4-methoxyphenyl)isoxazole]
IC50 [5]: 50 nM

Nc1nc2[nH]cc(CCc3ccc(C(=O)N[C@@H](CCC(=O)O)C(=O)O)cc3)c2c(=O)[nH]1 [pemetrexed]
pHsp27 and cleaved PARP signals (Western) ([1]; pemetrexed 0, 0.25, 0.5, 1.0 microMoles, zero to 48 hours): increase with dose and are greatest at 48 hours
